Laboratory results reported in patent US8637493B2, “Methods for treating glioblastoma” (University of Massachusetts, priority 2009, dated 2014).

Columns and labels:
[1] = system: Hey1; assay: RT-PCR / qRT-PCR of Notch target Hey1 mRNA in neurosphere cultures after DAPT; assay type: cell-based, human; settings: for decrease of Hey1 mRNA level: 48 hours after treatment, RT-PCR; for Hey1 expression (qRT-PCR): 1 μM DAPT, 48 hours
Protocol: TMZ concentrations for each culture were selected based on previous experiments (Mihaliak et al., Cancer Letts. 296, 168-177 (2010)) DAPT and LY concentrations were chosen for each culture based on the decrease in Hes1 and Hey1 expression. RNA was isolated from the cultures 48 hours after DAPT treatment, and Hes1 and Hey1 cDNA expression levels were analyzed by PCR or qPCR.
RT-PCR and RT-qPCR were performed as follows. Neurosphere cultures were pelleted and tumor tissues from subcutaneous xenografts were broken into a powder using a BioPulverizer (Biospec Products, Inc., Bartlesville, Okla.). RNA was isolated from neurosphere cultures and frozen tumor samples using TRIzol Reagent (Invitrogen, Carlsbad, Calif.), following the manufacturer's protocol. RNA was treated with DNase I, Amplification Grade (Invitrogen, Carlsbad, Calif.). cDNA was made using the SuperScript II Reverse Transcription (RT) Kit with Oligo(dT)12-18 primers (Invitrogen, Carlsbad, Calif.), followed by a 20 minute incubation at 37° C. with RNaseH. PCR was carried out using Taq DNA Polymerase, following the manufacturer's protocol (Invitrogen, Carlsbad, Calif.). Real time qPCR was carried out using QuantiTect SYBR Green (QIAGEN, Valencia, Calif.). Hes1 and β-Actin primers were developed using Primer3 (Rozen and Skaletsky, Methods Mol Biol 2000; 132: 365-86). Hes1 forward primer: 5″ […] 3″ (SEQ ID NO:1) and reverse primer: 5″ […] 3″ (SEQ ID NO:2). β-Actin (RT-PCR) forward primer: 5″[…] 3″ (SEQ ID NO:3) and reverse primer: 5″ […] 3″ (SEQ ID NO:4). β-Actin (qRT-PCR) forward primer: 5″[…] 3″ (SEQ ID NO:5) and reverse primer: 5″ […] (SEQ ID NO:6). Primers for Hey1 (Osipo et al., Oncogene 2008; 27: 5019-32), Notch1 (Lefort et al., Genes Dev 2007; 21: 562-77), Notch2 (O'Neill et al., Am J Pathol 2007; 171: 1023-36), Notch3 (Buchler et al., Ann Surg 2005; 242: 791-800, discussion −1) and Notch4 (Buchler et al., Ann Surg 2005; 242: 791-800, discussion −1) were previously published, RT-PCR products were analyzed on 2% agarose gels. tantification of band intensity for DAPT treated lines was determined using ImageJ (Rasband W S. ImageJ, U.S. National Institutes of Health, Bethesda, Md., USA. 1997-2004). cDNA levels for qRT-PCR products were calculated using the PFAFFL method (Pfaffl, Nucleic Acids Res 2001; 29: e45).

[2] = system: U87NS xenografts; assay: In vivo treatment of pre-existing subcutaneous U87NS xenografts; parameters: species or system nude mice
Protocol: We tested the effect of in vivo TMZ+GSI treatments on pre-existing subcutaneous glioma xenografts. […] When the tumor reached approximately 150 mm^3 (volume=([…])(π)(length/2)(width/2)^2), we began the following treatments: 1) DMSO control: two days of 100 μl DMSO/PBS (1:1) intraperitoneal (i.p.) injections; 2) TMZ-only: injections of TMZ (20 mg/kg) in 100 μl DMSO/PBS on days one and two; 3) LY chow-only: two days of 100 μl DMSO/PBS i.p. injections. […] The mice were fed LY chow from day 3 to 12.

Structure (SMILES) | decrease of Hey1 mRNA level ([1]; U87NS, DAPT 1 μM) [%] | Hey1 expression (qRT-PCR) ([1]; U87NS-NICD) | Hey1 expression (qRT-PCR) ([1]; U87NS-pMIG) | decrease of Hey1 mRNA level ([1]; U373NS, DAPT 5 μM) [%] | mice / xenografts with tumor progression (tumor volume doubled) ([2]; TMZ 20 mg/kg i.p. days 1-2, LY chow day 3 to 12) | average time until tumor volume doubled (progression) ([2]; after treatment, progressing mice only) [days] | mice that succumbed to progression ([2]; in vivo TMZ treatment) [%]
C[C@H](NC(=O)Cc1cc(F)cc(F)c1)C(=O)N[C@H](C(=O)OC(C)(C)C)c1ccccc1 [DAPT, N-[N-(3,5-difluorophenacetyl)-L-alanyl]-(S)-phenylglycine t-butyl ester] | 76 | minimal decrease | decreased | 51 |  |  | 
Cn1nnc2c(C(N)=O)ncn2c1=O [TMZ, temozolomide] |  |  |  |  | 8/8 | 23 ± 7 | 100
